In patent publication US20110082177A1, “N'-NITROXYALKYLNICOTINAMIDES FOR THE TREATMENT OF CARDIOVASCULAR DISEASES” (priority 2008, published 2011):

Key:
[1] = Binding to heparin, radiation method (pulse radiolysis); settings: water-soluble heparin 10 μM
Procedure: The experiment consisted in studying the effect of the presence of heparin on the observed rate of scavenging the hydrated electron by the MNIC^+ cation. The studies were carried out by pulse radiolysis, using an Elektronika ELU-6E linear electron accelerator (at the Institute of Applied Radiation Chemistry, Technical University of Lodz, Poland) having an electron beam energy of 6-8 MeV, as an ionising-radiation source. A solution of water-soluble heparin at a concentration of 10 μM was used in the experiment. […]
Based on the recorded kinetic traces of decay of the hydrated electron in the presence of the MNIC^+Cl^− solutions at various concentrations, the values of the pseudo-first order rate constants were determined. The value of the second-order rate constant for the investigated reaction was determined from the slope of the linear dependence of the above-determined rate constants versus concentration. […] Then, based on the determined second-order reaction rate constant and the observed rate constant for decay of the hydrated electron in the presence of heparin and MNIC^+, the degree of binding of the tested compound to heparin was determined using the following relationship: […]

[2] = Binding to heparin, absorption method; settings: compound 100 μM, heparin immobilised on Sepharose 25 mg/ml
Procedure: The absorption method consisted in comparing the absorption spectrum of an aqueous solution of the tested compound with the absorption spectrum of the same solution after its incubation with Sepharose immobilised heparin as a glycosaminoglycan mimicking the glycosaminoglycan receptor. The absorption spectra were recorded using a Perkin Elmer Lambda 40 spectrophotometer. The following reagents were prepared prior to the experiment: an aqueous solution of the tested compound of Example 1, namely 1-methyl-N′-(2-nitroxyethyl)nicotinamide chloride (MNIC^+Cl^−), at a concentration of 100 μM, an aqueous suspension of heparin immobilised on Sepharose at 25 mg/ml, and a solution of MNIC^+Cl^− in an aqueous suspension of heparin having the same concentrations in both the tested compound and heparin as mentioned above. Following the initial incubation of the solution of the tested compound with heparin, it was centrifuged for 6 minutes at 13,000 rpm. Then supernatant solutions above the precipitate of heparin were separated and the spectra of the solutions were recorded at the wavelength range of 200-600 nm.
The degree of binding of MNIC^+ to heparin was determined by calculating the areas under the absorption curves of the compound before and after contact with heparin, using the following relationship: […]

[3] = Ability to release NO by EPR method; settings: preliminary investigations
Procedure: Preliminary investigations of the ability of MNIC^+Cl^− to release NO were also performed using EPR (Electron Paramagnetic Resonance) method. The results of these studies confirmed that MNIC^+Cl^− releases NO, and most likely the vasodilating activity of the compound is a consequence of the stimulation of sGC by NO thus released.

isolated rat aorta = experiment: Vasodilating effect on phenylephrine contracted isolated rat aortal rings; settings: isolated rat aorta with preserved endothelial function; concentrations range from tens to hundreds μmol/l
Procedure: (§1) The vasodilating effect of MNIC^+Cl^− in aqueous solutions on isolated rat aorta was studied in the conditions close to physiological ones. 3-5 mm aortal rings with preserved endothelial function placed in a set of 6 containers a 5 ml containing the Krebs-Henseleit buffer constantly aerated with 5% CO2 in O2 and thermostated at 37° C. were suspended between two hooks connected to the force transducer for recording the ring contraction. Then, following the constriction induced by phenylephrine, the concentration-dependent vasodilating effect of MNIC^+Cl^− was investigated by measurement of relaxation of phenylephrine contracted aortal rings.

[4] = test system: soluble guanyl cyclase (sGC); experiment: Effect of sGC inhibitor ODQ on vasodilatating activity in isolated rat aortal rings
Procedure: as §1
(§2) The experiments explaining the mechanisms responsible for vasodilation induced by MNIC^+Cl^− were carried out in the same system of isolated vascular vessels. In order to determine the contribution of sGC and KATP channels in the vasodilating activity of the compound, the effects of an inhibitor of ATP-dependent potassium channels—glibenclamide (GLB) at a concentration of 10 μM, and an inhibitor of soluble guanyl cyclase (sGC) 1H-[1,2,4]-oxadiazole[4,3-a]quinoxalin-1-one (ODQ) at a concentration of 10 μM on this vasodilating activity were investigated in two set of experiments. In these experiments, MNIC^+Cl^− was used at the concentrations causing about 80-90% vasodilation, as determined in the experiment described above. […]

[5] = test system: ATP-dependent potassium channels; experiment: Effect of potassium channel inhibitor GLB on vasodilatating activity in isolated rat aortal rings
Procedure: as §1, §2

[6] = Scavenging of the hydrated electron by pulse radiolysis; type: physicochemical; settings: no heparin added, λ=720 nm
Procedure: The experiment consisted in studying the effect of the presence of heparin on the observed rate of scavenging the hydrated electron by the MNIC^+ cation. The studies were carried out by pulse radiolysis, using an Elektronika ELU-6E linear electron accelerator (at the Institute of Applied Radiation Chemistry, Technical University of Lodz, Poland) having an electron beam energy of 6-8 MeV, as an ionising-radiation source. A solution of water-soluble heparin at a concentration of 10 μM was used in the experiment. […] Based on the recorded kinetic traces of decay of the hydrated electron in the presence of the MNIC^+Cl^− solutions at various concentrations, the values of the pseudo-first order rate constants were determined. The value of the second-order rate constant for the investigated reaction was determined from the slope of the linear dependence of the above-determined rate constants versus concentration. […] Then, based on the determined second-order reaction rate constant and the observed rate constant for decay of the hydrated electron in the presence of heparin and MNIC^+, the degree of binding of the tested compound to heparin was determined using the following relationship: […]

| degree of binding to heparin [1] [%] | degree of binding to heparin [2] [%] | Compound | ability to release NO [3] | vasodilating activity (relaxation of phenylephrine contracted aortal rings) (isolated rat aorta) | effect of further addition of ODQ after GLB pre-incubation on vasodilatating activity ([4]; ODQ 10 μM added after GLB 10 μM) | effect of pre-incubation with ODQ on vasodilatating activity ([4]; ODQ 10 μM, MNIC+Cl− at concentrations causing about 80-90% vasodilation) | effect of addition of GLB after ODQ pre-incubation on reversal of the ODQ effect ([5]; GLB 10 μM added after ODQ 10 μM) | effect of pre-incubation with GLB on vasodilatating activity ([5]; GLB 10 μM, MNIC+Cl− at concentrations causing about 80-90% vasodilation) | second-order rate constant for the reaction of hydrated electron with the MNIC+ cation [6] [M⁻¹ s⁻¹] |
| --- | --- | --- | --- | --- | --- | --- | --- | --- | --- |
| 39 | 50 | C[n+]1cccc(C(N)=O)c1 [1-methylnicotinamide, reference compound] |  |  |  |  |  |  |  |
| 47 | 30 | C[n+]1cccc(C(=O)NCCO[N+](=O)[O-])c1.[Cl-] [MNIC^+Cl^−, 1-Methyl-N′-(2-nitroxyethyl)nicotinamide chloride] | releases NO | concentration-dependent vasodilating activity | inhibition of vasodilatating activity | inhibited vasodilatating activity | no further influence | had no influence | 4.17e+10 to 1e+11 |
